{
  "source": "patent US8658640B2",
  "about": "“JNK inhibitors for the treatment of endometriosis” (Merck Serono SA, priority 2005, dated 2014)",
  "key": {"[1]": {"conditions": "cited from earlier work"}, "endometriotic-like foci": {"test_system": "endometriotic-like foci", "test": "Rat model of experimentally induced endometriosis", "type": "in vivo", "conditions": "for comparison; data not shown", "description": "The control group received the vehicle only."}, "[2]": {"test_system": "endometriotic lesions from human endometrial tissue", "conditions": "earlier work using this model; positive control; cited from earlier work"}, "[3]": {"test_system": "human endometrial tissue organ cultures", "test": "Proliferative organ culture model (MMP-3 Western blot)", "type": "cell-based", "description": "Normal endometrial tissues were acquired just prior to ovulation by biopsy from a donor population (no history of endometriosis) and from women with surgically confirmed endometriosis. Informed consent was obtained prior to biopsy and the use of human tissues was approved by Vanderbilt University's Institutional Review Board and Committee for the Protection of Human Subjects.\nEndometrial biopsies were dissected into small cubes (˜1×1 mm^3) and 8-10 pieces of tissue per treatment group were suspended in tissue culture inserts. Organ cultures were maintained a total of 72 hrs at 37° C. in DME/F-12 media with serum supplements. Tissue treatments included 17β-estradiol (E), E plus progesterone (P), or E plus medroxy progesterone acetate (MPA) with and without the JNK inhibitor. Cultures were maintained for 24 hours in E only until the initiation of experimental conditions. JNK inhibitor was used at a concentration of 5 or 15 μM and MPA was used at a concentration of 50, 100 or 250 μM.\nMedia was collected from organ cultures and secreted proteins quantified using the Coomassie Plus Protein Assay (Pierce) and 20 μg total protein subjected to 10% SDS-PAGE. Proteins were transferred to PVDF membrane and blocked in PBS with 10% non-fat milk and 0.05% Tween-20. […]"}},
  "data": [
    {"compound": "C#C[C@]1(O)CC[C@H]2[C@@H]3CCC4=Cc5oncc5C[C@]4(C)[C@H]3CC[C@@]21C", "note": "[Danazol]", "values": [
      {"measurement": "patients suffering from pain with improved symptoms", "setting": "[1]", "result": "66-100%"}
    ]},
    {"compound": "antide", "values": [
      {"measurement": "regression of established endometriotic lesions", "setting": "endometriotic-like foci", "result": "about 85%"}
    ]},
    {"compound": "CC(=O)[C@H]1CC[C@H]2[C@@H]3CCC4=CC(=O)CC[C@]4(C)[C@H]3CC[C@]12C", "note": "[progesterone]", "values": [
      {"measurement": "disease progression", "setting": "[2]", "result": "prevents disease progression"}
    ]},
    {"compound": "CC(=O)O[C@]1(C(C)=O)CC[C@H]2[C@@H]3C[C@H](C)C4=CC(=O)CC[C@]4(C)[C@H]3CC[C@@]21C", "note": "[MPA, medroxy progesterone acetate]", "values": [
      {"measurement": "sensitivity to MPA treatment", "setting": "[3]; endometrial cultures from endometriosis patients", "result": "failed to regress"},
      {"measurement": "sensitivity to MPA treatment", "setting": "[3]; endometrial cultures from normal volunteers", "result": "sensitive"}
    ]}
  ]
}
